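Following 48 hours of exposure in 96-well plates, responses at five concentrations were used to interpolate endpoints linearly. TGI: concentration producing complete growth inhibition.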
How the values were obtained:
Assay in all cases: growth of human tumour cells (NCI), 48 h
HOP-18 NSCLC = tested on: HOP-18 NSCLC
786-0 renal = tested on: 786-0 renal
RXF-631 renal = tested on: RXF-631 renal
SN12C renal = tested on: SN12C renal
MOLT-4 leukemia = tested on: MOLT-4 leukemia
HOP-62 NSCLC = tested on: HOP-62 NSCLC
KM12 colon = tested on: KM12 colon
RPMI-8226 leukemia = tested on: RPMI-8226 leukemia
DMS 114 small cell lung = tested on: DMS 114 small cell lung
SK-MEL-28 melanoma = tested on: SK-MEL-28 melanoma
OVCAR-5 ovarian = tested on: OVCAR-5 ovarian
CCRF-CEM leukemia = tested on: CCRF-CEM leukemia
SK-MEL-5 melanoma = tested on: SK-MEL-5 melanoma
U251 CNS = tested on: U251 CNS
HCT-116 colon = tested on: HCT-116 colon
SNB-78 CNS = tested on: SNB-78 CNS
K-562 leukemia = tested on: K-562 leukemia
M14 melanoma = tested on: M14 melanoma
EKVX NSCLC = tested on: EKVX NSCLC
ACHN renal = tested on: ACHN renal
NCI-H226 lung = tested on: NCI-H226 lung
A498 renal = tested on: A498 renal
OVCAR-4 ovarian = tested on: OVCAR-4 ovarian
IGROV1 ovarian = tested on: IGROV1 ovarian
DLD-1 colon = tested on: DLD-1 colon
LOX IMVI melanoma = tested on: LOX IMVI melanoma
NCI-H460 lung = tested on: NCI-H460 lung
OVCAR-8 ovarian = tested on: OVCAR-8 ovarian
LXFL 529 NSCLC = tested on: LXFL 529 NSCLC
NCI-H23 lung = tested on: NCI-H23 lung
OVCAR-3 ovarian = tested on: OVCAR-3 ovarian
NCI-H522 lung = tested on: NCI-H522 lung
UACC-62 melanoma = tested on: UACC-62 melanoma
TK-10 renal = tested on: TK-10 renal
MALME-3M melanoma = tested on: MALME-3M melanoma
SF-539 CNS = tested on: SF-539 CNS
HCT-15 colon = tested on: HCT-15 colon
HT29 colon = tested on: HT29 colon
CAKI-1 renal = tested on: CAKI-1 renal
UACC-257 melanoma = tested on: UACC-257 melanoma
HL-60(TB) leukemia = tested on: HL-60(TB) leukemia
SK-MEL-2 melanoma = tested on: SK-MEL-2 melanoma
UO-31 renal = tested on: UO-31 renal
SF-295 CNS = tested on: SF-295 CNS
SK-OV-3 ovarian = tested on: SK-OV-3 ovarian
M19-MEL melanoma = tested on: M19-MEL melanoma
SNB-19 CNS = tested on: SNB-19 CNS
A549 NSCLC = tested on: A549 NSCLC
HCC-2998 colon = tested on: HCC-2998 colon
SNB-75 CNS = tested on: SNB-75 CNS
SW-620 colon = tested on: SW-620 colon
HOP-92 NSCLC = tested on: HOP-92 NSCLC
DMS 273 small cell lung = tested on: DMS 273 small cell lung
COLO 205 colon = tested on: COLO 205 colon
SR leukemia = tested on: SR leukemia
SF-268 CNS = tested on: SF-268 CNS
RXF 393 renal = tested on: RXF 393 renal
XF 498 CNS = tested on: XF 498 CNS
KM20L2 colon = tested on: KM20L2 colon

Measured: TGI

O=c1[nH]ccc2c1ccn2C1CC(O)C(CO)O1 (centres undefined)
not listed: SF-268 CNS | RXF 393 renal | XF 498 CNS | KM20L2 colon
> 100 µM: all other assays above

O=C(CC1(O)C(=O)Nc2ccccc21)c1ccc2ccccc2c1 (centres undefined)
not listed: HOP-18 NSCLC | KM12 colon | CCRF-CEM leukemia | U251 CNS | SR leukemia
> 100 µM: all other assays above

Reference: PubChem BioAssay (NCI)
